Test results taken from patent publication US20100311729A1, “Substituted imidazopyridazines and pyrrolopyrimidines as lipid kinase inhibitors” (priority 2007, published 2010).

What was measured:
[1] = target: T1, PI3K beta (Homo sapiens, UniProt P42338); experiment: PI3 kinase assay (Kinase-Glo luminescence), PI3K beta; format: biochemical; details: Enzymatic Data; read-out: PI3K beta IC50 [umol]
T1 construct: for the full-length p110-b subunit are generated and fused by overlapping PCR; His tag (C); made in house; host or cells: baculovirus; Tn5 (Trichoplusia ni) or TiniPro insect cells
Summary of the method: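 PI3Kβ (25 nM, BV-949) with 10 μg/mL phosphatidylinositol in Tris pH 7.5/MgCl2/NaCl/CHAPS/DTT buffer; reaction started with 1 μM ATP, 60 min at room temperature. ATP depletion read by Kinase-Glo luminescence; 8-point dilutions, IC50 by four-parameter logistic fit.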

[2] = target: T2, PI3K delta (Homo sapiens, UniProt O00329); experiment: PI3 kinase assay (Kinase-Glo luminescence), PI3K delta; format: biochemical; details: Enzymatic Data; read-out: PI3K delta IC50 [umol]
T2 construct: for the full-length p110-d subunit are generated and fused by overlapping PCR; His tag (C); made in house; host or cells: baculovirus; Tn5 (Trichoplusia ni) or TiniPro insect cells
Summary of the method: (§1)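 Recombinant PI3K constructs (alfa 10 nM, delta 10 nM, gamma 150 nM) with 1 μM ATP and 10 μg/mL phosphatidylinositol in Tris pH 7.5, MgCl2, NaCl, CHAPS, DTT; 60 min (alfa, delta) or 120 min (gamma) at room temperature. ATP depletion read by Kinase-Glo luminescence; IC50 from 4-parameter logistic fit over 8 concentrations.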

[3] = target: T3, PI3K gamma (Homo sapiens, UniProt P48736); experiment: PI3 kinase assay (Kinase-Glo luminescence), PI3K gamma; format: biochemical; details: Enzymatic Data; read-out: PI3K gamma IC50 [umol]
T3 construct: PI3Kγ BV-950 p110g(D144aa)-C-Term His Tag; His tag (C); made in house; host or cells: construct from the Roger Williams lab (MRC LMB) in pVL1393; baculovirus; Tn5 (Trichoplusia ni) or TiniPro insect cells
Summary of the method: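 Percent inhibition at eight concentrations (typically 10 to 0.003 […]) fitted to a four-parameter logistic model to give IC50. Reaction initiated with ATP; final ATP 1 μM and phosphatidylinositol 10 μg/mL; ATP consumption read by Kinase-Glo luminescence.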

[4] = target: T4, PI3K alfa (Homo sapiens, UniProt P42336); experiment: PI3 kinase assay (Kinase-Glo luminescence), PI3K alfa; format: biochemical; details: Enzymatic Data; read-out: PI3K alfa IC50 [umol]
T4 construct: for the p110-a subunit (with a deletion of the first 20 amino acids); His tag (C); made in house; host or cells: baculovirus; Tn5 (Trichoplusia ni) or TiniPro insect cells
Summary of the method: as §1

T4 sequence (P42336 with tags, fused parts or gaps limits assumed): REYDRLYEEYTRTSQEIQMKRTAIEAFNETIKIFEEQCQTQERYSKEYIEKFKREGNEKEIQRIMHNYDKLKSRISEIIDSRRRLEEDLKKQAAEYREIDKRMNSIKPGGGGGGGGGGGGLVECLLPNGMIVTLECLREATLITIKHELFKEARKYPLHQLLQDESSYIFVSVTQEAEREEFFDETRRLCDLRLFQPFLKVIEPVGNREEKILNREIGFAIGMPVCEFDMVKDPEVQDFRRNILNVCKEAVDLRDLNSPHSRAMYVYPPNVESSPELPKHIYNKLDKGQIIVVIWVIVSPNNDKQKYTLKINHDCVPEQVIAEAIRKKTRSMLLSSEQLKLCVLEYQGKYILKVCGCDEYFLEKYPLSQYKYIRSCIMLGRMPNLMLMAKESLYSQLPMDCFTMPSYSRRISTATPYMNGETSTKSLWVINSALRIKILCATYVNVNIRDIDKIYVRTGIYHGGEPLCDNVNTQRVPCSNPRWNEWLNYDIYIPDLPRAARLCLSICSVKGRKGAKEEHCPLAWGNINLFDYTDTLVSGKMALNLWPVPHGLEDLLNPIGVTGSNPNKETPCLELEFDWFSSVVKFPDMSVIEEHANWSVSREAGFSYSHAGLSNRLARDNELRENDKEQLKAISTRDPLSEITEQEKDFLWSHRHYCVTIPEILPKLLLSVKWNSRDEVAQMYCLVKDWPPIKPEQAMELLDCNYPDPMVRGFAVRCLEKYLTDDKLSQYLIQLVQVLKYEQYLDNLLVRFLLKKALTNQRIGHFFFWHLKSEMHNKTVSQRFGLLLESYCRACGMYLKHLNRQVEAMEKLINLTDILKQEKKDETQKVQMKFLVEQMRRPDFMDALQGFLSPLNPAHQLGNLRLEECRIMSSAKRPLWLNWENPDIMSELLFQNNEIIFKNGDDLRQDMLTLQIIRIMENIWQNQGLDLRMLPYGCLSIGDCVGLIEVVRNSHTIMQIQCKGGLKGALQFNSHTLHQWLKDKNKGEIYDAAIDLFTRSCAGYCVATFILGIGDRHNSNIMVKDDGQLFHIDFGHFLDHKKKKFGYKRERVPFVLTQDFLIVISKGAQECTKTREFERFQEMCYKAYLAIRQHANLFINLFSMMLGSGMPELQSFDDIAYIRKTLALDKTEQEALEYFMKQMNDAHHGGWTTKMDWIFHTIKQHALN
T2 sequence (O00329 with tags, fused parts or gaps limits assumed): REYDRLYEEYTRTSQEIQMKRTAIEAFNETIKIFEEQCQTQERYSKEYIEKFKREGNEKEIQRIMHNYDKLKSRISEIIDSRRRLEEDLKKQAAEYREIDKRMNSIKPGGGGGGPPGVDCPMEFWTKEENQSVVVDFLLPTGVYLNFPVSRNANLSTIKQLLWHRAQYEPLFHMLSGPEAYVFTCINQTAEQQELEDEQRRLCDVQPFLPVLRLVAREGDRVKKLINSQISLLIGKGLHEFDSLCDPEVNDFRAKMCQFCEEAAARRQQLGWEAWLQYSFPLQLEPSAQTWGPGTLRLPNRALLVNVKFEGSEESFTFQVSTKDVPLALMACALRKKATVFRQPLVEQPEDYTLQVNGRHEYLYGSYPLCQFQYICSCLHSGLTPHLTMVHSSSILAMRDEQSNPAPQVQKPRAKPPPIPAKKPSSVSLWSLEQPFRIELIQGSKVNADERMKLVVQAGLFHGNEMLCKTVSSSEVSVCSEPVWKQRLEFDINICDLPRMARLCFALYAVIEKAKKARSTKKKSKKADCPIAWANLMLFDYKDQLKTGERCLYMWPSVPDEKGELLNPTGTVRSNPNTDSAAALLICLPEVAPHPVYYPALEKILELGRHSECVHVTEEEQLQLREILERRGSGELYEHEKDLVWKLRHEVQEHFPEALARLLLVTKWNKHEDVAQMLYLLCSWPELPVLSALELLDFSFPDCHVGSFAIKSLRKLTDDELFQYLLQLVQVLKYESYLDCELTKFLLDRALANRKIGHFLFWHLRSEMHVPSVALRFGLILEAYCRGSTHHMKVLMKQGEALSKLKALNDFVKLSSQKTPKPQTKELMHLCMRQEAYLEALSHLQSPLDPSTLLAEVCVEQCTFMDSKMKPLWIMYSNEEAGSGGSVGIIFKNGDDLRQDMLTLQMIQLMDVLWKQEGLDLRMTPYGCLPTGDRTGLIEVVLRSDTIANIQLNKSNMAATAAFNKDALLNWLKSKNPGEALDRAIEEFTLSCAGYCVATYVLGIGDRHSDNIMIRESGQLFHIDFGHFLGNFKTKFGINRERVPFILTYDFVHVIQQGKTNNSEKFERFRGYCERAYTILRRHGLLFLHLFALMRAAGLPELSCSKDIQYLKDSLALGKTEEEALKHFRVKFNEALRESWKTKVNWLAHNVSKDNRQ
T1 sequence (P42338 with tags, fused parts or gaps limits assumed): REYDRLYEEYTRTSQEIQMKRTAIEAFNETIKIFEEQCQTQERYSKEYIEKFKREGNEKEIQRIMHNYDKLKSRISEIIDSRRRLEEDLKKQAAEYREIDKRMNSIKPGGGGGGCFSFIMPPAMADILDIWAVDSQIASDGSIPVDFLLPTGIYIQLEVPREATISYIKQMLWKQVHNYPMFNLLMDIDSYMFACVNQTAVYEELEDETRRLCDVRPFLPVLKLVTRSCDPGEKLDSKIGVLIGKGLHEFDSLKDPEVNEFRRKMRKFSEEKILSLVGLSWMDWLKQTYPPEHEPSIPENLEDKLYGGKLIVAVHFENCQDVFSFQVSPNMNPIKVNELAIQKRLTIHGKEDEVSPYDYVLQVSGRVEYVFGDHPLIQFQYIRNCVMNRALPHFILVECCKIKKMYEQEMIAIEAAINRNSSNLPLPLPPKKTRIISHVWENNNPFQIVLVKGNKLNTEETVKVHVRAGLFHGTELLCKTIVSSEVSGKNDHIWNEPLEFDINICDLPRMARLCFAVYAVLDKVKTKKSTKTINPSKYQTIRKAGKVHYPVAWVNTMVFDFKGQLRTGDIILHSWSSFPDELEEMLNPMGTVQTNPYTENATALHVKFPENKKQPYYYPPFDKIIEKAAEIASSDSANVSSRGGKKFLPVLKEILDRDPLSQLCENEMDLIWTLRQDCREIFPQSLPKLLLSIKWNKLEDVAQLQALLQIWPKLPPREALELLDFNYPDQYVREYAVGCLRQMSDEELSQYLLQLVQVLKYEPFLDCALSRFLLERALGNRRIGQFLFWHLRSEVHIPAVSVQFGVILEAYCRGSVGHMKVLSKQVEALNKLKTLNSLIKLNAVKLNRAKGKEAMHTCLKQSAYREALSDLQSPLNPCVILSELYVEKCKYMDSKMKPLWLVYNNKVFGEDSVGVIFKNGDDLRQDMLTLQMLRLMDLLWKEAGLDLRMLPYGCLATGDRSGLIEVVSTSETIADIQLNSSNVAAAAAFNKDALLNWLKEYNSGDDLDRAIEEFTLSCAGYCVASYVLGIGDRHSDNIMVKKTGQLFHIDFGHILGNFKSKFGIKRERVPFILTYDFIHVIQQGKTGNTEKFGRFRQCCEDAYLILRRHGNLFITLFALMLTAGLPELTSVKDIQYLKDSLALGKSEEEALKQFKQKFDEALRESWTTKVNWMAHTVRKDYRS
T3 sequence (P48736 144-1102 limits assumed): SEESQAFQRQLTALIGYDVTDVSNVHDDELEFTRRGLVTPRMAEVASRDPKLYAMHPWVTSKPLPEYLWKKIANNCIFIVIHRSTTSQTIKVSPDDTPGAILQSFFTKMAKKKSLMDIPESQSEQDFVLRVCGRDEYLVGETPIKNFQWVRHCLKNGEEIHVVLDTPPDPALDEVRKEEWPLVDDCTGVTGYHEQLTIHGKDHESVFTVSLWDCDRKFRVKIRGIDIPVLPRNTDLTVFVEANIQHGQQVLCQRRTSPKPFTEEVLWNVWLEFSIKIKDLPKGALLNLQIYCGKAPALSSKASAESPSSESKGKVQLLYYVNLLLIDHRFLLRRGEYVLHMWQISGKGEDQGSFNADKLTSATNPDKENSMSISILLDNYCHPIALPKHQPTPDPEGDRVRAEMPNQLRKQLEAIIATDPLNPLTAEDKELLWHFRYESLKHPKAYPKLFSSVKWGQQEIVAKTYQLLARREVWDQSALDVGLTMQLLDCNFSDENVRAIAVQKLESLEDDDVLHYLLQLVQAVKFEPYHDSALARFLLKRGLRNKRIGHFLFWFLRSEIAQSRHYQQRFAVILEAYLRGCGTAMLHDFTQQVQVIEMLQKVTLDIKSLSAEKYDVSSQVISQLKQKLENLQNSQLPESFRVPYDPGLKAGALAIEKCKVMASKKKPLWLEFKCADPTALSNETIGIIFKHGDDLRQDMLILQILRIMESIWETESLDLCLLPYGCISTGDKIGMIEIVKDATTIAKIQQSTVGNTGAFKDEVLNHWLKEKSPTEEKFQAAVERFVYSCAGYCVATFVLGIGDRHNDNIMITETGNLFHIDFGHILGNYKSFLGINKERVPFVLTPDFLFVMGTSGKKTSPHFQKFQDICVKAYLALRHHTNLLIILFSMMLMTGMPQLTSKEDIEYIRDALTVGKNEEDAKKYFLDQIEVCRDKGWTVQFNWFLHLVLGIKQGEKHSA

| melting point | IC50 [1] | IC50 [2] | IC50 [3] | IC50 [4] | Compound |
| --- | --- | --- | --- | --- | --- |
| 263 to 266 °C | – | – | – | – | Nc1ncc(-c2ccc3ncc(-c4ccc(CN5CCC(C(=O)N6CCCCC6)CC5)cc4)n3n2)cc1C(F)(F)F [Example 183, (1-{4-[6-(6-Amino-5-trifluoromethyl-pyridin-3-yl)-imidazo[1,2-b]pyridazin-3-yl]-benzyl}-piperidin-4-yl)-piperidin-1-yl-methanone] |
| 223 to 225 °C | 1050 nM | 139 nM | 461 nM | 48 nM | Nc1ncc(-c2cnc3ccc(-c4ccc(OCC5(CNC(=O)C6CC6)COC5)cc4)nn23)cc1C(F)(F)F [Example 172, Cyclopropanecarboxylic acid (3-{4-[3-(6-amino-5-trifluoromethyl-pyridin-3-yl)-imidazo[1,2-b]pyridazin-6-yl]-phenoxymethyl}-oxetan-3-ylmethyl)-amide] |
| 131 to 133 °C | – | – | – | – | COc1ccc(-c2cnn3ccc(-c4ccc(OCCCNC(=O)OC(C)(C)C)c(OC)c4)nc23)cc1OC [Example 25, (3-{4-[3-(3,4-Dimethoxy-phenyl)-pyrazolo[1,5-a]pyrimidin-5-yl]-2-methoxy-phenoxy}-propyl)-carbamic acid tert-butyl ester] |
| 249 to 252 °C | – | – | – | – | Nc1ncc(-c2ccc3ncc(-c4ccc(CN5CCC(C(=O)N6CCCCCC6)CC5)cc4)n3n2)cc1C(F)(F)F [Example 182, (1-{4-[6-(6-Amino-5-trifluoromethyl-pyridin-3-yl)-imidazo[1,2-b]pyridazin-3-yl]-benzyl}-piperidin-4-yl)-azepan-1-yl-methanone] |
| – | 1000 nM | 428 nM | 884 nM | 205 nM | COc1cc(-c2ccc3ncc(-c4cnc(N)c(C(F)(F)F)c4)n3n2)ccc1OCCNC(=O)C1CC1 [Example 61, Cyclo-propane-carboxylic acid (2-{4-[3-(6-amino-5-trifIuoro-methyl-pyridin-3-yl)-imidazo [1,2-b)pyridazin-6-yl]-2-methoxy-phenoxy}-ethyl)-amide] |
| – | 19 nM | 40 nM | 1290 nM | 54 nM | Nc1ccc(-c2cnc3ccc(-c4cnc(N)c(C(F)(F)F)c4)nn23)cn1 [Example 39, 5-{3-(6-Amino-pyridin-3-yl)-imidazo [1,2-b]pyridazin-6-yl]-3-trifluoro-methyl-pyridin-2-ylamine] |
| – | > 9100 nM | 624 nM | > 9100 nM | 635 nM | COc1ccc(-c2cnc3ccc(-c4cnc5[nH]ccc5c4)nn23)cc1OC [Example 42, 3-(3,4-Dimethoxy-phenyl)-6-(1H-pyrrolo[2,3-b]pyridin-5-yl)-imidazo [1,2-b] pyridazine] |
| – | > 9100 nM | 2140 nM | > 9100 nM | 87 nM | Nc1ncc(-c2cnc3ccc(-c4ccc(OCCCNC(=O)C5CC5)cc4)nn23)cc1C(F)(F)F [Example 58, Cyclopropanecarboxylic acid (3-{4-[3-(6-amino-5-trifluoromethyl-pyridin-3-yl)-imidazo[1,2-b]pyridazin-6-yl]-phenoxy}-propyl)-amide] |
| – | 36 nM | 13 nM | 617 nM | 18 nM | COc1cc(-c2cnc3ccc(-c4cnc(N)c(C(F)(F)F)c4)nn23)c(F)cc1C(=O)NCCCN1CCOCC1 [Example 159, 4-[6-(6-Amino-5-trifluoro-methyl-pyridin-3-yl)-imidazo [1,2-b]pyridazin-3-yl]-5-fluoro-2-methoxy-N-(3-morpholin-4-yl-propyl)-benzamide] |
| – | 81 nM | 41 nM | 2440 nM | 82 nM | NCCCOc1ccc(-c2ccc3ncc(-c4cnc(N)c(C(F)(F)F)c4)n3n2)cn1 [Example 176, 5-{6-[6-(3-Amino-propoxy)-pyridin-3-yl]-imidazo-[1,2b]pyridazin-3-yl}-3-trifluoro-methyl-pyridin-2-ylamine] |
| – | 226 nM | 121 nM | 1690 nM | 92 nM | COc1ccc(-c2ccc3ncc(-c4cnc(N)cn4)n3n2)cc1OC [Example 38, 5-[6-(3,4-Dimethoxy-phenyl)-imidazo [1,2-b]pyridazin-3-yl]-pyrazin-2-ylamine] |
| – | 147 nM | 162 nM | 1430 nM | 159 nM | NCCOc1ccc(-c2ccc3ncc(-c4cnc(N)c(C(F)(F)F)c4)n3n2)cc1 [Example 74, 5-{6-[4-(2-Amino-ethoxy)-phenyl]-imidazo [1,2-b]pyridazin-3-yl}-3-trifluoro-methyl-pyridin-2-ylamine] |
| – | 2540 nM | 280 nM | 1730 nM | 54 nM | Nc1ncc(-c2cnc3ccc(-c4ccc(OCC5(NC(=O)C6CC6)COC5)cc4)nn23)cc1C(F)(F)F [Example 146, Cyclopropanecarboxylic acid (3-{4-[3-(6-amino-5-trifluoromethyl-pyridin-3-yl)-imidazo[1,2-b]pyridazin-6-yl]-phenoxymethyl}-oxetan-3-yl)-amide] |
| – | 178 nM | 6 nM | 405 nM | 8 nM | COc1cc(-c2cnc3ccc(-c4cnc(N)c(C(F)(F)F)c4)nn23)ccc1C(=O)N1CCN(CCN2CCOCC2)CC1 [Example 118, {4-[6-(6-Amino-5-trifluoro-methyl-pyridin-3-yl)-imidazo [1,2-b]pyridazin-3-yl]-2-methoxy-phenyl}-[4-(2-morpholin-4-yl-ethyl)-piperazin-1-yl]-methanone] |
| – | > 9100 nM | 448 nM | 2920 nM | 3900 nM | COc1ccccc1-c1ccn2ncc(-c3ccc(C(N)=O)cc3)c2n1 [Example 179, 4-[5-(2-Methoxy-phenyl)-pyrazolo[1,5-a]pyrimidin-3-yl]-benzamide] |
| – | 575 nM | 142 nM | 565 nM | 91 nM | CCN(CC)CCNC(=O)c1ccc(-c2cnc3ccc(-c4cnc(N)c(C(F)(F)F)c4)nn23)cc1F [Example 108, 4-[6-(6-Amino-5-trifluoro-methyl-pyridin-3-yl)-imidazo [1,2-b]pyridazin-3-yl]-N-(2-diethyl-amino-ethyl)-2-fluoro-benzamide] |
| – | 7620 nM | 530 nM | 6540 nM | 155 nM | O=C1CCCN1CCCOc1ccc(-c2ccc3ncc(-c4cnc5[nH]ccc5c4)n3n2)cc1F [Example 91, 1-(3-{2-Fluoro-4-[3-(1H-pyrrolo [2,3-b]pyridin-5-yl)-imidazo [1,2-b]pyridazin-6-yl]-phenoxy}-propyl)-pyrrolidin-2-one] |
| – | 6280 nM | 2980 nM | > 9100 nM | 1620 nM | COc1ccc(-c2ccc3ncc(-c4cnc(N)c(C(F)(F)F)c4)n3n2)cc1 [Example 46, 5-[6-(4-Methoxy-phenyl)-imidazo[1,2 b]pyridazin-3-yl]-3 trifluoro-methyl-pyridin-2-ylamine] |
| – | 68 nM | 13 nM | 555 nM | 11 nM | Nc1ncc(-c2ccc3ncc(-c4ccc(C(=O)N5CCN(CCO)CC5)c(F)c4)n3n2)cc1C(F)(F)F [Example 113, {4-[6-(6-Amino-5-trifluoro-methyl-pyridin-3-yl)-imidazo [1,2-b]pyridazin-3-yl]-2-fluoro-phenyl}-[4-(2-hydroxy-ethyl)-piperazin-1-yl]-methanone] |
| – | 233 nM | 56 nM | 2020 nM | 28 nM | CC(C)S(=O)(=O)c1ccc(-c2cnc3ccc(-c4cnc(N)c(C(F)(F)F)c4)nn23)cc1 [Example 72, 5-{3-[4-(Propane-2-sulfonyl)-phenyl]-imidazo[1,2-b]pyridazin-6-yl}-3-trifluoro-methyl-pyridin-2-lamine] |
| – | 271 nM | 13 nM | 1260 nM | 8 nM | Nc1ncc(-c2ccc3ncc(-c4ccc(C(=O)NCCN5CCS(=O)(=O)CC5)cc4F)n3n2)cc1C(F)(F)F [Example 153, 4-[6-(6-Amino-5-trifluoro-methyl-pyridin-3-yl)-imidazo [1,2-b]pyridazin-3-yl]-N-[2-(1,1-dioxo-1lambda*6*- thio-morpholin-4-yl)-ethyl]-3-fluoro-benzamide] |
| – | 59 nM | 20 nM | 928 nM | 6 nM | Nc1ncc(-c2ccc3ncc(-c4ccc(C(=O)O)c(F)c4)n3n2)cc1C(F)(F)F [Example 95, 4-[6-(6-Amino-5-trifluoro-methyl-pyridin-3-yl)-imidazo [1,2-b]pyridazin-3-yl]-2-fluoro-benzoic acid] |
